Test results reported in ChEMBL document CHEMBL5154941, “Structural Modifications of Nimodipine Lead to Novel PDE1 Inhibitors with Anti-pulmonary Fibrosis Effects” (J Med Chem, 2022).
pIC50: −log10 of the molar value. Activity calls are given as the source filed them. The calls are words filed in the database; no cut-off is given here.

Columns and labels:
Rattus norvegicus [1] = assay: Antifibrotic activity in bleomycin-induced Sprague-Dawley rat pulmonary fibrosis model assessed as decrease in relaxation time at 150 mg/kg, po administered daily for 28 days; format: functional, organism-based; settings: time 28.0 day
Rattus norvegicus [2] = assay: Antifibrotic activity in bleomycin-induced Sprague-Dawley rat lung fibrosis model assessed as decrease in collagen I level at 2.5 to 5 mg/kg, ip administered daily for 28 days by Western blot analysis; format: functional, organism-based; settings: dose 2.5-5 mg/kg, time 28.0 day
Rattus norvegicus [3] = assay: Antifibrotic activity in bleomycin-induced Sprague-Dawley rat lung fibrosis model assessed as reduced septal enlargement at 5 mg/kg, ip administered daily for 28 days by hematoxylin and eosin staining based histopathological analysis; format: functional, organism-based; settings: time 28.0 day
[4] = AUC (0 to infinity) in Sprague-Dawley rat at 5 mg/kg, iv; format: ADME, organism-based; parameters: time infinity, dose 5 mg/kg, route iv; settings: in vivo
Cytochrome P450 2C9 = Cytochrome P450 2C9 (Homo sapiens, UniProt P11712); assay: Inhibition of CYP2C9 in human liver microsomes at 25 uM in the presence of NADPH; format: ADME, Microsome
[5] = target: Dual specificity calcium/calmodulin-dependent 3',5'-cyclic nucleotide phosphodiesterase 1A (Homo sapiens, UniProt P54750); assay: Inhibition of PDE1A (142 to 552 residues) (unknown origin) expressed in Escherichia coli BL21 measured for 15 mins by liquid scintillation counter method
[6] = target: High affinity cAMP-specific and IBMX-insensitive 3',5'-cyclic phosphodiesterase 8A (Homo sapiens, UniProt O60658); assay: Inhibition of PDE8A1 (480 to 820 residues) (unknown origin) expressed in Escherichia coli BL21 using [3H]-cAMP as substrate measured for 15 mins by liquid scintillation counter method
Rattus norvegicus [7] = assay: Antifibrotic activity in bleomycin-induced Sprague-Dawley rat lung fibrosis model assessed as decrease in fibronectin level at 2.5 to 5 mg/kg, ip administered daily for 28 days by Western blot analysis; format: functional, organism-based; settings: dose 2.5-5 mg/kg, time 28.0 day
HLF [8] = assay: Antifibrotic activity in TGF-beta induced HLF cell assessed as suppression of FN level at 10 uM incubated for 48 hrs by Western blot analysis; format: functional, cell-based; settings: Homo sapiens
HLF [9] = assay: Antifibrotic activity in TGF-beta induced HLF cell assessed as suppression of FN level incubated for 48 hrs by Western blot analysis; format: functional, cell-based; settings: Homo sapiens, DDE = dose-dependent effect
[10] = Half life in Sprague-Dawley rat at 5 mg/kg, iv; format: ADME, organism-based; settings: in vivo
Rattus norvegicus [11] = assay: Antifibrotic activity in bleomycin-induced Sprague-Dawley rat pulmonary fibrosis model assessed as decrease in relaxation time at 2.5 to 5 mg/kg, ip administered daily for 28 days; format: functional, organism-based; settings: dose 2.5-5 mg/kg, time 28.0 day
Rattus norvegicus [12] = assay: Antifibrotic activity in bleomycin-induced Sprague-Dawley rat pulmonary fibrosis model assessed as decrease in enhanced pause at 2.5 to 5 mg/kg, ip administered daily for 28 days; format: functional, organism-based; settings: dose 2.5-5 mg/kg, time 28.0 day
[13] = AUC (0 to t) in Sprague-Dawley rat at 5 mg/kg, iv; format: ADME, organism-based; parameters: dose 5 mg/kg, route iv; settings: in vivo
Rattus norvegicus [14] = assay: Antifibrotic activity in bleomycin-induced Sprague-Dawley rat pulmonary fibrosis model assessed as decrease in end-expiratory pause at 2.5 to 5 mg/kg, ip administered daily for 28 days; format: functional, organism-based; settings: dose 2.5-5 mg/kg, time 28.0 day
Cytochrome P450 2C19 = Cytochrome P450 2C19 (Homo sapiens, UniProt P33261); assay: Inhibition of CYP2C19 in human liver microsomes at 25 uM in the presence of NADPH; format: ADME, Microsome
[15] = Acute toxicity in overnight fasted KM mouse at 2000 mg/kg, po dosed daily for 14 days; format: organism-based; settings: in vivo, 336 h, time 14 day
Rattus norvegicus [16] = assay: Antifibrotic activity in bleomycin-induced Sprague-Dawley rat pulmonary fibrosis model assessed as increase in respiratory rate at 2.5 to 5 mg/kg, ip administered daily for 28 days; format: functional, organism-based; settings: dose 2.5-5 mg/kg, time 28.0 day
HLF [17] = assay: Antifibrotic activity in TGF-beta induced HLF cell assessed as decrease in alpha-SMA level at 10 to 20 uM incubated for 48 hrs by DAPI staining based immunofluorescence microscopic analysis; format: functional; settings: Homo sapiens, dose 10-20 µM
[18] = target: 3',5'-cyclic-AMP phosphodiesterase 4D (Homo sapiens, UniProt Q08499); assay: Inhibition of PDE4D2 (86 to 413 residues) (unknown origin) expressed in Escherichia coli BL21 [3H]-cAMP as substrate measured for 15 mins by liquid scintillation counter method
[19] = target: Dual specificity calcium/calmodulin-dependent 3',5'-cyclic nucleotide phosphodiesterase 1B (Homo sapiens, UniProt Q01064); assay: Inhibition of PDE1B (10 to 487 residues) (unknown origin) expressed in Escherichia coli BL21 using [3H]-cGMP as substrate measured for 15 mins by liquid scintillation counter method
[20] = target: High affinity cGMP-specific 3',5'-cyclic phosphodiesterase 9A (Homo sapiens, UniProt O76083); assay: Inhibition of PDE9A (181 to 506 residues) (unknown origin) expressed in Escherichia coli BL21 using [3H]-cGMP as substrate at 10000 nM measured for 15 mins by liquid scintillation counter method
Rattus norvegicus [21] = assay: Antifibrotic activity in bleomycin-induced Sprague-Dawley rat lung fibrosis model assessed as decrease in alpha-smooth muscle actin level at 2.5 to 5 mg/kg, ip administered daily for 28 days by Western blot analysis; format: functional, organism-based; settings: dose 2.5-5 mg/kg, time 28.0 day
[22] = target: High affinity 3',5'-cyclic-AMP phosphodiesterase 7A (Homo sapiens, UniProt Q13946); assay: Inhibition of PDE7A1 (130-482 residues) (unknown origin) expressed in Escherichia coli BL21 using [3H]-cAMP as substrate measured for 15 mins by liquid scintillation counter method
Rattus norvegicus [23] = assay: Antifibrotic activity in bleomycin-induced Sprague-Dawley rat lung fibrosis model assessed as increase in cAMP level at 2.5 to 5 mg/kg, ip administered daily for 28 days by ELISA analysis; format: functional, organism-based; settings: dose 2.5-5 mg/kg, time 28.0 day
HLF [24] = assay: Antifibrotic activity in TGF-beta induced HLF cell assessed as suppression of Col-I level incubated for 48 hrs by Western blot analysis; format: functional, cell-based; settings: Homo sapiens, DDE = dose-dependent effect

Chain of Dual specificity calcium/calmodulin-dependent 3',5'-cyclic nucleotide phosphodiesterase 1A (P54750 whole entry, the tested form may be a part): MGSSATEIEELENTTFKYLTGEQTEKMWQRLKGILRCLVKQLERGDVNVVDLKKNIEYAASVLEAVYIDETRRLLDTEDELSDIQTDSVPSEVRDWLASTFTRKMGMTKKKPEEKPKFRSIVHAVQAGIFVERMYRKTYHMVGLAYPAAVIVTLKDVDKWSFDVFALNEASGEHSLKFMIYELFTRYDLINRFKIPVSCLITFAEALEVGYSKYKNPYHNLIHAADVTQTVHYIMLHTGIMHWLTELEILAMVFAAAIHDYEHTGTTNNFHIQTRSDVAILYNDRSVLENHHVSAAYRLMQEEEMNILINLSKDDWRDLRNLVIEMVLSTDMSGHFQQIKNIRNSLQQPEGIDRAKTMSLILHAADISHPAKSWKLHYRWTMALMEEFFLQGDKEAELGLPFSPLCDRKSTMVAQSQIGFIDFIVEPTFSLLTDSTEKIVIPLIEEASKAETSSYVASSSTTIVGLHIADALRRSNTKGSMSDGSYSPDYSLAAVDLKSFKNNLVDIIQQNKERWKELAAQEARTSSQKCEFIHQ
Chain of High affinity 3',5'-cyclic-AMP phosphodiesterase 7A (Q13946 whole entry, the tested form may be a part): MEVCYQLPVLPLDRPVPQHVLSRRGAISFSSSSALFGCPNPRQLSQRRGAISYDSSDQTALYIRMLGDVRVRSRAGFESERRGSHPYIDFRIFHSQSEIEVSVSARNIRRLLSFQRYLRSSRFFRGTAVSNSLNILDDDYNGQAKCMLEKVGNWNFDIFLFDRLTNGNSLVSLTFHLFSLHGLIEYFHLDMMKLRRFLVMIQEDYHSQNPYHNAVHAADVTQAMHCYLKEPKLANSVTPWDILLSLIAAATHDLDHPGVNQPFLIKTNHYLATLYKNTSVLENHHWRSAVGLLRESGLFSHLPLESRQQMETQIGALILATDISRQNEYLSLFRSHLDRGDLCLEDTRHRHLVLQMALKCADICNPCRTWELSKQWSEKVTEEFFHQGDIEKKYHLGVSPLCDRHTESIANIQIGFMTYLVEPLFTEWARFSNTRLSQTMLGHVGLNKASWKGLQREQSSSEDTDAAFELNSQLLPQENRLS
Chain of High affinity cGMP-specific 3',5'-cyclic phosphodiesterase 9A (O76083 whole entry, the tested form may be a part): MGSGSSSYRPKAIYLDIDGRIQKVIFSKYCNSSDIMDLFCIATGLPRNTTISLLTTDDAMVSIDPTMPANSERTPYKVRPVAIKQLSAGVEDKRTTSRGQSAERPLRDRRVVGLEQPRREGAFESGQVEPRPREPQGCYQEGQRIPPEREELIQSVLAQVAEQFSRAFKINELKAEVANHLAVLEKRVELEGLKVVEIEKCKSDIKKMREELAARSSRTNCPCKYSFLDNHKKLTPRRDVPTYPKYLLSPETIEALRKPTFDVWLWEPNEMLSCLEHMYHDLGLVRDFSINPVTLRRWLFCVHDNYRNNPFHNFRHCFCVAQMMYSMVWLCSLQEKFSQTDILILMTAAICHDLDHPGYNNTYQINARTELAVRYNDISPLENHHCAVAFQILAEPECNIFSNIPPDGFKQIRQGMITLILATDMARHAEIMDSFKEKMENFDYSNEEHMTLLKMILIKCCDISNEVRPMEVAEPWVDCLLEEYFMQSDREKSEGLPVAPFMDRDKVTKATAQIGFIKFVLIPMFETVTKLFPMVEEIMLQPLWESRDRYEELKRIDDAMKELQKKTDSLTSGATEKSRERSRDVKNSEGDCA
Chain of Cytochrome P450 2C9 (P11712 whole entry, the tested form may be a part): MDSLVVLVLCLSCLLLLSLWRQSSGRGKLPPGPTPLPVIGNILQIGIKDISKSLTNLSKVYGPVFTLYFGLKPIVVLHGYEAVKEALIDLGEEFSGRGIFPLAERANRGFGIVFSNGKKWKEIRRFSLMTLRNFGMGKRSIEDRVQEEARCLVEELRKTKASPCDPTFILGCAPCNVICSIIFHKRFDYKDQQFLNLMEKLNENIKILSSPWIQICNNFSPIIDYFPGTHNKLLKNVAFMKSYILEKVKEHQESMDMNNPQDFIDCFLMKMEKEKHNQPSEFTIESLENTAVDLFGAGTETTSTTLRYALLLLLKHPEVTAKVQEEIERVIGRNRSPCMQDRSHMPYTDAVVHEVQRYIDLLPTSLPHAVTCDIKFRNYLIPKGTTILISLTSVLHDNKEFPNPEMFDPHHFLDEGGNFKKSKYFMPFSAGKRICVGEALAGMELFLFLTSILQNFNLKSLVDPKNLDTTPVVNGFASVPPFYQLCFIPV
Chain of Dual specificity calcium/calmodulin-dependent 3',5'-cyclic nucleotide phosphodiesterase 1B (Q01064 whole entry, the tested form may be a part): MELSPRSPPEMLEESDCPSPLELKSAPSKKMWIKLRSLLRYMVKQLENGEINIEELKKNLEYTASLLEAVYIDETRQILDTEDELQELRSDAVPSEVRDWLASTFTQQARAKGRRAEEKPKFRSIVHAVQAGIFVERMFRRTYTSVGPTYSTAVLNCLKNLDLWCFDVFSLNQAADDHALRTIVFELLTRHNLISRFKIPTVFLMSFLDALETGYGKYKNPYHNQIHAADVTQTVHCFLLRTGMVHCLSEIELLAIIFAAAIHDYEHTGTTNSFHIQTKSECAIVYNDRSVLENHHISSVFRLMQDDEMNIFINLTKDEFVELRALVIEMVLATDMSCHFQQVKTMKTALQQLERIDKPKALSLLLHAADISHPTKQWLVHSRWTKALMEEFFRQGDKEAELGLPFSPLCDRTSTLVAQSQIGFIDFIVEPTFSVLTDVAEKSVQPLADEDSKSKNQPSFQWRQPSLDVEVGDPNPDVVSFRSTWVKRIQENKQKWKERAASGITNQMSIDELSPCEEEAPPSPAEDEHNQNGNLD
Chain of 3',5'-cyclic-AMP phosphodiesterase 4D (Q08499 whole entry, the tested form may be a part): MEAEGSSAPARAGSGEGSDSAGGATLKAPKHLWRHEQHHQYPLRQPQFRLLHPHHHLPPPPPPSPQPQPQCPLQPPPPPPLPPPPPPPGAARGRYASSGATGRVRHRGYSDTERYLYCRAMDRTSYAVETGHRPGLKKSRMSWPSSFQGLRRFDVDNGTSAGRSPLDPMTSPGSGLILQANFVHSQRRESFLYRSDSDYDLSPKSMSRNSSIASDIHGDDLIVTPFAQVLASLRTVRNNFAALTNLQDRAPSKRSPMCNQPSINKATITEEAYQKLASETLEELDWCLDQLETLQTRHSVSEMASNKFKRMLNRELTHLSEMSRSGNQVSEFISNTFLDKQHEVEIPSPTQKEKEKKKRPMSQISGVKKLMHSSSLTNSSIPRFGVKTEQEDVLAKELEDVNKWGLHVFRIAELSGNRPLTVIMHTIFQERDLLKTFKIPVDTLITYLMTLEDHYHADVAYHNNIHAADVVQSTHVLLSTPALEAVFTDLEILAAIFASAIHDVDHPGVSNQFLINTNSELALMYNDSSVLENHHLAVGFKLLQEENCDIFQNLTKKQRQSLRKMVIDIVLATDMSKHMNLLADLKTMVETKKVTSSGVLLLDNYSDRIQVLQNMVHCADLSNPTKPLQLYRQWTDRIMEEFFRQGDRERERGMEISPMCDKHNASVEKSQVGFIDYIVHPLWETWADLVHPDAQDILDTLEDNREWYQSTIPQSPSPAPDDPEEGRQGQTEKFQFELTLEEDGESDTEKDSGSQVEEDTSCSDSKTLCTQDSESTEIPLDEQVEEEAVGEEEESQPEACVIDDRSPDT
Chain of Cytochrome P450 2C19 (P33261 whole entry): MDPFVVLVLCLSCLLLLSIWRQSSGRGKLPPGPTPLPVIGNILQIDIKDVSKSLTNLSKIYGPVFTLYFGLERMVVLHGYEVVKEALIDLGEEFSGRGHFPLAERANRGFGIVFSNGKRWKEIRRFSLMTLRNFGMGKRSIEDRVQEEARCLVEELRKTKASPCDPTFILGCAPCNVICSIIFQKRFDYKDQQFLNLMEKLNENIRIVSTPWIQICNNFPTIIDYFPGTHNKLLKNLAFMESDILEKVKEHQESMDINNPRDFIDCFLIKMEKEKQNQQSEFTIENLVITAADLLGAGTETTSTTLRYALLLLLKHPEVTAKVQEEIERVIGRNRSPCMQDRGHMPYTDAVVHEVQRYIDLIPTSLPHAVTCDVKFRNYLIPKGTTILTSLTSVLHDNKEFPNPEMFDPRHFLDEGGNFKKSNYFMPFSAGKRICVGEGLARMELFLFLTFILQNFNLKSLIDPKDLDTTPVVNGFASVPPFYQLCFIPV
Chain of High affinity cAMP-specific and IBMX-insensitive 3',5'-cyclic phosphodiesterase 8A (O60658 whole entry, the tested form may be a part): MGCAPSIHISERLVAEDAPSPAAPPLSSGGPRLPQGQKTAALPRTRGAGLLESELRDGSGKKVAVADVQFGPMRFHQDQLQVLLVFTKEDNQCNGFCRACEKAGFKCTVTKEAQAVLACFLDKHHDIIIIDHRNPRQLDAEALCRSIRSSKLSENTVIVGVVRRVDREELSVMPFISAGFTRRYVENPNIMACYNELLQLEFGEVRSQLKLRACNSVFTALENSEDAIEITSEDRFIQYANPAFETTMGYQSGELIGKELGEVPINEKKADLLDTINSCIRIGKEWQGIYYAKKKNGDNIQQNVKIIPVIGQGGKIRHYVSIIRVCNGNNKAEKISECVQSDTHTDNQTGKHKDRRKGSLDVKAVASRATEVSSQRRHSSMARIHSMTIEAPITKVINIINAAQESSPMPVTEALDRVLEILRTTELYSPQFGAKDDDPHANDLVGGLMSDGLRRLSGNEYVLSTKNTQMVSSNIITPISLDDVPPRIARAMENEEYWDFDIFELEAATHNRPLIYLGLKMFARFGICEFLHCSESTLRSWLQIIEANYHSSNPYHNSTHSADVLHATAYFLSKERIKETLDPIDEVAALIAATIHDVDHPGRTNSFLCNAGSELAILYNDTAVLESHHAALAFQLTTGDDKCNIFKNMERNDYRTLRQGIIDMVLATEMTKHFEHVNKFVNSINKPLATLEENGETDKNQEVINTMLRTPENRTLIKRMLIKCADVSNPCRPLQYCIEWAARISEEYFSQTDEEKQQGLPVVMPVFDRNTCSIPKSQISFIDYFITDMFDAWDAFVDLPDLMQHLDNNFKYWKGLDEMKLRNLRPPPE

CC1=C(C(=O)O[C@H](C)c2ccccc2)C(c2ccc3c(cnn3C)c2)C(C(=O)O[C@H](C)c2ccccc2)=C(C)N1
Activity (Rattus norvegicus [1]): Active
Activity (Rattus norvegicus [2]): Active
Activity (Rattus norvegicus [3]): Active
AUC(0-inf) [4]: 4590 ng·h/mL
pIC50 (Cytochrome P450 2C9): 5.34
pIC50 [5]: 6.84
pIC50 [6]: < 5.00
Activity (Rattus norvegicus [7]): Active
Activity (HLF [8]): Active
Activity (HLF [9]): Dde
half-life [10]: 3.67 h
Activity (Rattus norvegicus [11]): Active
Activity (Rattus norvegicus [12]): Active
AUC(0-t) [13]: 4560 ng·h/mL
Activity (Rattus norvegicus [14]): Active
pIC50 (Cytochrome P450 2C19): 5.41
Activity [15]: Non-Toxic
Activity (Rattus norvegicus [16]): Active
Activity (HLF [17]): Active
pIC50 [18]: 6.02
pIC50 [19]: 6.45
inhibition [20]: < 50%
Activity (Rattus norvegicus [21]): Active
pIC50 [22]: 5.85
Activity (Rattus norvegicus [23]): Active
Activity (HLF [24]): Dde
